Data set [1] relates to H1975. In words: H1975 CellTiter-Glo. The note with it: Homo sapiens, NCI-H1975; 72 h compound incubation; read-out: H1975 CTG IC50. In kind it is cell-based. An outline of the steps: (§1)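 In this viability format, compound-treated cells sit 72 h at 37° C. before ATP content is quantified by luminescence, and IC50 is taken from the fitted dose-response curve.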
On the technique in general: In ATP-based viability assays light output follows the ATP content of the culture.

Data set [2] addresses EGFR wt (Homo sapiens, UniProt P00533). In words: EGFR wt Lance assay. In kind it is biochemical. The protocol:
(§2) Inhibition is indicated as […] [nM] (“−”=not measured). Compounds having an activity designated as “A” provided an IC50≤100 nM; compounds having an activity designated as “B” provided an 100 nM<IC50≤500 nM; compounds having an activity designated as “C” provided an 500 nM<IC50≤1000 nM; compounds having an activity designated as “D” provided an 1000 nM<IC50≤100000 nM; and compounds having an activity designated as “E” provided an IC50>10000 nM.

The target in data set [3] is EGFR Exon 20 INSNPH Ba/F3 (Homo sapiens, UniProt P00533, DUP771-773, cells depend on it). In words: EGFR Exon 20 INSNPH Ba/F3 CellTiter-Glo. In kind it is cell-based. The note with it: CellTiter-Glo, 72 h, read-out: EGFR Exon 20 INSNPH Ba/F3 CTG IC50. An outline of the steps: (§3)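 IC50 values come from dose–response fits of CellTiter-Glo luminescence in Ba/F3 cells treated with compound for 72 h at 37 °C, 5% CO2. Vehicle (DMSO) and 10 μM staurosporine wells set the assay window, with Z′ ≥0.5 required.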

Data set [4] deals with T1, HER2 INS YVMA (Homo sapiens, UniProt P04626, INS775YVMA).
T1 construct: purchased DPF
Put plainly: Lance Kinase Activity Assay, HER2 INS YVMA (Her2 Exon 20 INSYVMA Lance). The note with it: biochemical Lance assay. Type of data set: biochemical. A digest of the protocol: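 IC50 was fitted to sigmoidal curves of TR-FRET signal (665 and 615 nm emission after 340 nm excitation) from an Eu anti-phospho antibody binding the phosphorylated ULight peptide. The ATP-started reaction ran 1 h at RT and was then quenched with 10 mM EDTA plus antibody for a further 1 h. Compounds were tested as 8-point, 3-fold dilutions.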

Data set [5] concerns A431. Put plainly: A431 CellTiter-Glo. Type of data set: cell-based. The note with it: Homo sapiens, A-431; 72 h compound incubation; read-out: A431 CTG IC50. A digest of the protocol: as §1
The target of data set [6] is EGFR T790ML858R (Homo sapiens, UniProt P00533, L858R/T790M). Put plainly: EGFR T790ML858R Lance assay. Type of data set: biochemical. The protocol:
as §2

Data set [7] has as its target Her2 Exon 20 INSYVMA Ba/F3 (Homo sapiens, UniProt P04626, DUP772-775, cells depend on it). Put plainly: Her2 Exon 20 INSYVMA Ba/F3 CellTiter-Glo. In kind it is cell-based. The note with it: CellTiter-Glo, 72 h, read-out: Her2 Exon 20 INSYVMA Ba/F3 CTG IC50. An outline of the steps: as §3
A short description of data set [8]: Metabolic stability in mouse liver microsomes without cofactor NADPH. In kind it is in vitro ADME. The note with it: 3 μM test compound, mouse liver microsomes, without NADPH, 50 min, 37° C., LC-MS/MS. An outline of the steps:
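Cofactor-free incubation: no NADPH added to mouse liver microsomes, with compound at 3 μM and 37° C. Remaining parent was quantified by LC-MS/MS at time points up to 50 minutes to track depletion.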
(In general: Liver microsomes are a subcellular fraction often used to study metabolism.)

pIC50: −log10 of the molar value.

One may read the pIC50 as −log10 of the IC50, conventionally taken in molar units.

Sequence of EGFR wt (P00533 25-1210): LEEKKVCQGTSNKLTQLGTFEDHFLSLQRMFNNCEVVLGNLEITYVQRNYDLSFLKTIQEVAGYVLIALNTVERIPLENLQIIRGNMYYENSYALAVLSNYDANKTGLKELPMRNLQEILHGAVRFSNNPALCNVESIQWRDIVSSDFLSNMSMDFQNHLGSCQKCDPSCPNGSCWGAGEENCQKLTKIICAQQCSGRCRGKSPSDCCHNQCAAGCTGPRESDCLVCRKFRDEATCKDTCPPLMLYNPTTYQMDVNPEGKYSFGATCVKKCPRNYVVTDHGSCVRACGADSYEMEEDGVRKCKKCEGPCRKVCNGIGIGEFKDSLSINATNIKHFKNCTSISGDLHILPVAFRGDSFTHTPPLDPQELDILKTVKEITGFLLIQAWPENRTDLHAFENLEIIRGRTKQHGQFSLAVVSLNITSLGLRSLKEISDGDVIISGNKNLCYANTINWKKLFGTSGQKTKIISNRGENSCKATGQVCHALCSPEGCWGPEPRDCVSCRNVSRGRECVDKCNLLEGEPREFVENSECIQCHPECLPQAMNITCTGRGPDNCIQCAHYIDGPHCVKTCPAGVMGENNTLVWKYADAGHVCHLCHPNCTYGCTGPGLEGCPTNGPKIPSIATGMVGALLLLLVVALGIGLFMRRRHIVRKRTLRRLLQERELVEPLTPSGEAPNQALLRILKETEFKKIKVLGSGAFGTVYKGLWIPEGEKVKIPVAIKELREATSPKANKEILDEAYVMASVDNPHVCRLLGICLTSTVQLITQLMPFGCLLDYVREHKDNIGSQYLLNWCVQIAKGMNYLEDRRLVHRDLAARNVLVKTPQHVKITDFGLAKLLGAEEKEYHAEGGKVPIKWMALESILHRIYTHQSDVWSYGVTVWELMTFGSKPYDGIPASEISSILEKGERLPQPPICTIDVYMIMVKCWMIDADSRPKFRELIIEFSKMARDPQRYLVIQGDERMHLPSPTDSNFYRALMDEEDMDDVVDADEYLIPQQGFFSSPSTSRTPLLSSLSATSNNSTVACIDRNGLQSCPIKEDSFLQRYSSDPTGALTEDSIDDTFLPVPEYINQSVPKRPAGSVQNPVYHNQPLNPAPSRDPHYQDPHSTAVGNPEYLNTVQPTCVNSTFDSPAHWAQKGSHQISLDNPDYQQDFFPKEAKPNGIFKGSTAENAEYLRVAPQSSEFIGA
Sequence of Her2 Exon 20 INSYVMA Ba/F3 (P04626 with tags, fused parts or gaps DUP772-775): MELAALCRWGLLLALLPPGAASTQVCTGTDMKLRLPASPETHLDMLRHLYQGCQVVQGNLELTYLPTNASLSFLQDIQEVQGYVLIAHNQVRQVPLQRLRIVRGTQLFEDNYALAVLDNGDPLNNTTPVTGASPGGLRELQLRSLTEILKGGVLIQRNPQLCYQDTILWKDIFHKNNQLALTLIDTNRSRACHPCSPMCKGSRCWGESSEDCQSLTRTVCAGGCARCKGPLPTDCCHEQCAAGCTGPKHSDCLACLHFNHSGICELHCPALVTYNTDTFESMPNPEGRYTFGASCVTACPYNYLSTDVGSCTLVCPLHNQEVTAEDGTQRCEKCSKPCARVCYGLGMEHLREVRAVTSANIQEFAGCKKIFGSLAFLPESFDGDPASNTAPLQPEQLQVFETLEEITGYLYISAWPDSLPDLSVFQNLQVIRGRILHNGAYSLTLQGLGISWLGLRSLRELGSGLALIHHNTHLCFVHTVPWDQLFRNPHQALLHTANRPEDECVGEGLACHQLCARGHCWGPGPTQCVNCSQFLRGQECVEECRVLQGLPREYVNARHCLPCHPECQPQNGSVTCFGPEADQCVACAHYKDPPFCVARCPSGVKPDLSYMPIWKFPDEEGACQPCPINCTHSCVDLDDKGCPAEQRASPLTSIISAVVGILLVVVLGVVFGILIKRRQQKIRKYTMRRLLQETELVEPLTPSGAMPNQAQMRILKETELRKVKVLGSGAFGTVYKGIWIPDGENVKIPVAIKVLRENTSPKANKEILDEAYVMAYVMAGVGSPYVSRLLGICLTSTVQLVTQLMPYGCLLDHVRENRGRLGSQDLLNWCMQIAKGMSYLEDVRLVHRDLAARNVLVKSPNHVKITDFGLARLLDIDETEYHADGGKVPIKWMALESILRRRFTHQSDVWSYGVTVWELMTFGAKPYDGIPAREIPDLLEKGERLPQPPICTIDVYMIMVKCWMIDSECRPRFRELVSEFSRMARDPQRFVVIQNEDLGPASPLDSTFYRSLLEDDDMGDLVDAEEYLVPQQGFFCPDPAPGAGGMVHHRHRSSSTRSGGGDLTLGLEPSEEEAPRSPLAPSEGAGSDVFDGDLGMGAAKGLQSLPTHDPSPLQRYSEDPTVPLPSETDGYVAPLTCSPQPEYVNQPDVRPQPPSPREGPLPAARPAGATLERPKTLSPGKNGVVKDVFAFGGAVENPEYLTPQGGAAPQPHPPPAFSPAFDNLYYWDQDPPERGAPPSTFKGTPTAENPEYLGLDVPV
Sequence of EGFR Exon 20 INSNPH Ba/F3 (P00533 with tags, fused parts or gaps DUP771-773): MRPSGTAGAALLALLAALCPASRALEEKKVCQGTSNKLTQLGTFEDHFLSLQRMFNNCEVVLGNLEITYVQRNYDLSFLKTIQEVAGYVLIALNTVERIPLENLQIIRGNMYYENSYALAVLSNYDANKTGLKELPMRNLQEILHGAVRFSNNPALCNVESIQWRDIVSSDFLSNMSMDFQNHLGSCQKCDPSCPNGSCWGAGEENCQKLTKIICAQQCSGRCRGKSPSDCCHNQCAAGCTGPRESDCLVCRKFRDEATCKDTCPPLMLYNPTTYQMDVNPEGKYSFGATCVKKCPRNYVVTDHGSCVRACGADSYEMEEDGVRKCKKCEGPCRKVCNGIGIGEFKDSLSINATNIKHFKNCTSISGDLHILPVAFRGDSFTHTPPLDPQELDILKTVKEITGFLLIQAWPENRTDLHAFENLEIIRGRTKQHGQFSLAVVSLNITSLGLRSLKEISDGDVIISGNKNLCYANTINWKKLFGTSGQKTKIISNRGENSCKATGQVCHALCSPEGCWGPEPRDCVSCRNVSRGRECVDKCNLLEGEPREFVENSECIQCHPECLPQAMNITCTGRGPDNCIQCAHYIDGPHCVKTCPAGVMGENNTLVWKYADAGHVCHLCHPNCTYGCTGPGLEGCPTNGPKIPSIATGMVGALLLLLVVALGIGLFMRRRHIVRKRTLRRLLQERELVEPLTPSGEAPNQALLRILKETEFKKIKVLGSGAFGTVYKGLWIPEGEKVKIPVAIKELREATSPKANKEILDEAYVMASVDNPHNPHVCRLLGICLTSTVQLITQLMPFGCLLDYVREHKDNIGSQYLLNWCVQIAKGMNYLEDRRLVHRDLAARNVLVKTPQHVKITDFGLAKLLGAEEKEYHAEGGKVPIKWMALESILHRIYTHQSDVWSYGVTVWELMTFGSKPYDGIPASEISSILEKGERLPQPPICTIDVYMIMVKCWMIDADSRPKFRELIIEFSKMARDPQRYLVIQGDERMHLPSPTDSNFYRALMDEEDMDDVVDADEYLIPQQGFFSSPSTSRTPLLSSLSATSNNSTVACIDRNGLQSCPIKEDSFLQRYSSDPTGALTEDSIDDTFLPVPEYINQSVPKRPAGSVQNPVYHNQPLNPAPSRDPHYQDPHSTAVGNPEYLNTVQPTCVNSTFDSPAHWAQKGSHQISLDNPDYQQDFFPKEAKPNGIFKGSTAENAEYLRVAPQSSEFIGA
T1 sequence (P04626 with tags, fused parts or gaps INS775YVMA): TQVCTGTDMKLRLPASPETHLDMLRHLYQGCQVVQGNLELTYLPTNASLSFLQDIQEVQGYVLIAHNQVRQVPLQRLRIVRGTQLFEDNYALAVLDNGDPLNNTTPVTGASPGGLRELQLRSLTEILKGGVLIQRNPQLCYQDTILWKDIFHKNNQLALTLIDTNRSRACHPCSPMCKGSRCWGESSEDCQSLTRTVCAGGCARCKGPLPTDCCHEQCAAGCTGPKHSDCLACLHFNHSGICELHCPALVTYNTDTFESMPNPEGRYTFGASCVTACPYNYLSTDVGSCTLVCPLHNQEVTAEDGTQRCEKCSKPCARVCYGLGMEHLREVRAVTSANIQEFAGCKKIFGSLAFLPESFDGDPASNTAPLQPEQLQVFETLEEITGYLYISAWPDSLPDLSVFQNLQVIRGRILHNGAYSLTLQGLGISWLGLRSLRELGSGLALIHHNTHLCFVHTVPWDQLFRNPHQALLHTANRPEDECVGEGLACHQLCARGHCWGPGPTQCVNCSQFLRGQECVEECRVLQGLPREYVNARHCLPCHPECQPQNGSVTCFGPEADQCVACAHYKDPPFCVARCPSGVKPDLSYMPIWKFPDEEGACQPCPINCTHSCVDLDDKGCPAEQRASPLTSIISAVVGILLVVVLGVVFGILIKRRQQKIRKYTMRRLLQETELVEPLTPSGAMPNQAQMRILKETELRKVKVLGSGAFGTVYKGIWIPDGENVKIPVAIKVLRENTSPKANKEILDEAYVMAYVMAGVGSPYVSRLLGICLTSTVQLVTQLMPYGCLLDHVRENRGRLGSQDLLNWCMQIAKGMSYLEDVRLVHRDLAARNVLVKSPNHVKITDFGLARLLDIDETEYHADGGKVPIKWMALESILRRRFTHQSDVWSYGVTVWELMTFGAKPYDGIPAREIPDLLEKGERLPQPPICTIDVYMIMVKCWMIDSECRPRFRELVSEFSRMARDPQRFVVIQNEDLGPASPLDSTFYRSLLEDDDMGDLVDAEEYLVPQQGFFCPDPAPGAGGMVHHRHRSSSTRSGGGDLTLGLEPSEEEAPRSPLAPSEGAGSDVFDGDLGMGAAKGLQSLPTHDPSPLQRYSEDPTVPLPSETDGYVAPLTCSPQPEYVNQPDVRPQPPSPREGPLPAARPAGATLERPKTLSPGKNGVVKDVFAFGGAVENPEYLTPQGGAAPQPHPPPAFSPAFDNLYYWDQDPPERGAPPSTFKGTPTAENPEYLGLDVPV

In the case of `C=CC(=O)N1CCCc2ccc(-c3c(-c4cccc(OCCN(C)C)c4)[nH]c4nccc(Cl)c34)cc21` [Example 88, 1-(7-(4-chloro-2-(3-(2-(dimethylamino)ethoxy)phenyl)-1H-pyrrolo[2,3-b]pyridin-3-yl)-3,4-dihydroquinolin-1(2H)-yl)prop-2-en-1-one], the pIC50 in data set [1] was 6.30 to 7.00; in data set [2], not below 7.00; in data set [4] it was not below 7.00; in data set [5], 4.00 to 6.00; in data set [6] it was not below 7.00. In addition, the GI50 in data set [3] and in data set [7] was 1000 to 10000 nM each time. In addition, the “Stability in presence of mouse liver microsomes without cofactor NADPH [% remaining after 50 min]” value in data set [8] is on record as more than 99 % remaining after 50 min.
Take `C=CC(=O)N1CCCc2ccc(-c3c(-c4ccc(N5CCN(C(C)C)CC5)cc4)[nH]c4nccc(Cl)c34)cc21` [Example 91, 1-(7-(4-chloro-2-(4-(4-isopropylpiperazin-1-yl)phenyl)-1H-pyrrolo[2,3-b]pyridin-3-yl)-3,4-dihydroquinolin-1(2H)-yl)prop-2-en-1-one]: the pIC50 was 6.30 to 7.00 in data set [1]; not below 7.00 in data set [2]; not below 7.00 in data set [4]; 4.00 to 6.00 in data set [5]; not below 7.00 in data set [6]. In addition, the GI50 in data set [3] and in data set [7] was 500 to 1000 nM in each case. In data set [8], the “Stability in presence of mouse liver microsomes without cofactor NADPH [% remaining after 50 min]” value was more than 99 % remaining after 50 min.
Take `C=CC(=O)N1CCCc2ccc(-c3c(-c4ccc(OCCN(C)C)cc4)[nH]c4nccc(Cl)c34)cc21` [Example 92, 1-(7-(4-chloro-2-(4-(2-(dimethylamino)ethoxy)phenyl)-1H-pyrrolo[2,3-b]pyridin-3-yl)-3,4-dihydroquinolin-1(2H)-yl)prop-2-en-1-one]: the pIC50 in data set [1] was 6.00 to 6.30; in data set [2], not below 7.00; in data set [4], not below 7.00; in data set [5], 4.00 to 6.00; in data set [6], not below 7.00. For the same molecule, the figures for the GI50 in data set [3] and in data set [7] were 1000 to 10000 nM and 500 to 1000 nM, respectively. Moreover, in data set [8], the “Stability in presence of mouse liver microsomes without cofactor NADPH [% remaining after 50 min]” value was more than 99 % remaining after 50 min.
Regarding `C=CC(=O)N1CCCc2ccc(-c3c(-c4ccc(N5CCN(C)CC5)nc4)[nH]c4nccc(Cl)c34)cc21` [Example 93, 1-(7-(4-chloro-2-(6-(4-methylpiperazin-1-yl)pyridin-3-yl)-1H-pyrrolo[2,3-b]pyridin-3-yl)-3,4-dihydroquinolin-1(2H)-yl)prop-2-en-1-one], the pIC50 in data set [1] was 6.00 to 6.30; in data set [2] it was not below 7.00; in data set [4] it was 6.30 to 7.00; in data set [5], 4.00 to 6.00; in data set [6] it was not below 7.00. The GI50 in data set [3] was 1000 to 10000 nM; in data set [7], 500 to 1000 nM. In addition, the “Stability in presence of mouse liver microsomes without cofactor NADPH [% remaining after 50 min]” value in data set [8] was more than 99 % remaining after 50 min.
`C=CC(=O)N1CCCc2ccc(-c3c(-c4cccc(CN5CCN(C)CC5)c4)[nH]c4nccc(Cl)c34)cc21` [Example 95, 1-(7-(4-chloro-2-(3-((4-methylpiperazin-1-yl)methyl)phenyl)-1H-pyrrolo[2,3-b]pyridin-3-yl)-3,4-dihydroquinolin-1(2H)-yl)prop-2-en-1-one]: the pIC50 in data set [1] was 6.00 to 6.30; in data set [2], not below 7.00; in data set [4], not below 7.00; in data set [5], 4.00 to 6.00; in data set [6], not below 7.00. Further, the GI50 in data set [3] and in data set [7] was 1000 to 10000 nM throughout. Also, the “Stability in presence of mouse liver microsomes without cofactor NADPH [% remaining after 50 min]” value in data set [8] is more than 99 % remaining after 50 min.
With `C=CC(=O)Nc1cc(-c2c(-c3ccc(N4CCN(C)CC4)cc3)[nH]c3ncc(C#N)cc23)ccc1C` [Example 97, N-(5-(5-cyano-2-(4-(4-methylpiperazin-1-yl)phenyl)-1H-pyrrolo[2,3-b]pyridin-3-yl)-2-methylphenyl)acrylamide 2,2,2-trifluoroacetate], the pIC50 in data set [1] is not below 7.00; in data set [2] it was not below 7.00; in data set [4], not below 7.00; in data set [5], 6.30 to 7.00; in data set [6], not below 7.00. The GI50 in data set [3] was not above 100 nM; in data set [7], 100 to 500 nM. Besides, the “Stability in presence of mouse liver microsomes without cofactor NADPH [% remaining after 50 min]” value in data set [8] is reported as more than 99 % remaining after 50 min.

(Values after US20220370440A1 (Lead Discovery Center GmbH, priority 2018, published 2022).)
